Measured values reported in PMC12951551, “Do Amino-Oxetanes Resemble Amides? A Matched Molecular Pairs Property and Structural Comparison” (Journal of Medicinal Chemistry, 2026).
≈ marks a conversion by molar mass, not a printed value.

How the values were obtained:
[1] = Experimental pKaH (amine basicity); assay type: physicochemical; settings: for pKa: Table S2
Text: The influence of basicity is an ongoing rationale for inclusion of the oxetanes in drug candidates, providing the potential to attenuate off-target effects including hERG channel inhibition. […] As comparison against the benzamide analogue is not possible, we instead looked at the head-to-head comparison between amino-oxetane 4a and benzylamine 18 (Figure ).

[2] = Permeability assay (RRCK); assay type: in vitro ADME, canine; settings: dog, MDCK, apical to basolateral, average of 2 runs, footnote b = only one replicate
human hepatocytes = experiment: Human Hepatocyte (HHEP) stability assay, clearance; assay type: in vitro ADME; settings: human hepatocytes, 0.5 million cells/mL, 1 µM test compound
Experimental: Human Hepatocyte (HHEP) assay: The high throughput HHEP stability assay was performed in a 384-well format (Greiner Bio-One, Monroe, NC). The cryopreserved HHEP were thawed, and re-suspended in Williams E medium (WEM, custom formula number 91-5233EC; Invitrogen, Grand Island, NY) supplemented with HEPES and Na2CO3. The cells were counted using the Trypan Blue exclusion method. A multidrop liquid dispenser (Multidrop DW, Thermo Scientific, Waltham, MA) was used to add the HHEP suspensions to the 384-well plates. The cell plates were covered and transferred to a Cytomat 2 incubator (ThermoFisher) and Biomek i7 (Beckman Coulter, Indianapolis, IN), equipped with three 3position MéCour heat exchangers. Test compounds were diluted on the Biomek i7 with buffer (15 µL) and added to the HHEP (30 µL). The final incubation contained 0.5 million cells/mL and 1 µM test compound in 45 µL total volume containing 0.01% DMSO. The incubation was carried out at 37 °C in the Cytomat 2 incubator (relative humidity ≥ 90%, 5% CO2/95% air). At various time points (2, 4, 11, 45, 75, 120, and 240 min), the plate was pulled out from the incubator by the Biomek i7 robot and put on the MéCour heated exchanger. Samples (3 µL) were transferred to a 384-well plate containing 30 µL acetonitrile with an internal standard (IS) to quench the reaction. Water (60 µL) was added to the quenched plate to dilute the organic solvent content for LC-MS/MS analysis. The plates were centrifuged at 3000 rpm for 10 min at 4 °C, sealed and subsequently analyzed using LC-MS/MS without further transfer of the supernatant.
Propranolol (CYP2D6), midazolam (CYP3A) and triazolam (CYP3A, low clearance), naloxone (UGT2B7), carbazeran (AO), and verapamil (CYP3A, CYP2C8) were used as positive controls. For CYP inhibition study, 1 mM ABT (a pan-cYP inhibitor) was pre-incubated with HHEP for 30 minutes at 37 °C before adding test compounds. Values are n >3 unless […]
(§1) Permeability assay (RRCK): Ralph Russ canine kidney cells were used for permeability measurements using a cell monolayer in 96-transwell format. The detailed assay conditions have been reported previously.9 Test compounds were added to the donor wells and a buffer was added to the receiver wells to start the apical to basolateral transport assay.
(§2) Time 0 and 1.5 h incubation samples were taken for LC-MS/MS analysis. Apparent permeability (Papp) was calculated using the equation below (1), where Area is the surface area of the cell monolayer (0.0625 cm2), CD(0) is the […]

Kinetic solubility = assay type: physicochemical; settings: for solubility at 24 h: aqueous pH buffer, aqueous buffer, kinetic from dmso stock, 37 °C, 600 µM start
Experimental: (§3) Aqueous buffer preparation: pH 3: 50 µL of 1N hydrochloric acid was added to 500 mL of deionized water. The solution was titrated with 1N hydrochloric acid to pH 3, and back titrated with 1N sodium hydroxide. pH 7.4: 100 mM sodium phosphate buffer is made by adding 56.4 g of dibasic sodium phosphate and 10.3 g of monobasic sodium phosphate to 4 L of deionized water. 250 µL of 100 mM sodium phosphate buffer was diluted with 250 µL of deionized water. The solution was titrated with 1N hydrochloric acid to pH 7.4, and back titrated with 1N sodium hydroxide. pH 10: Fisher Scientific pH 10 buffer (SB116-500) containing potassium hydroxide, potassium carbonate, and potassium […]
pH 12.8: 30 mL of 1N NaOH was added to 200 mL of deionized water. The solution was titrated with 1N sodium hydroxide to pH 12.8 and back titrated with 1N hydrochloric acid.
Kinetic solubility: Samples were diluted to 600 µM in the appropriate pH buffer (pH: 3, 7.4, 10) and to 600 µM (assumed 100% solubility) in a DMSO standard. Samples were mixed thoroughly and incubated at 37 °C for 24 h.
Following incubation, pH samples were transferred to a […] PVDF (low binding) and filtered to remove any precipitate. The filtrate was collected and analyzed via MS/MS. The ratio of MS response (DMSO:pH) is taken and multiplied by the initial 600 µM concentration to determine the concentration (solubility) of the samples in pH buffers. […]
as §1, §2

[3] = Shake flask LogD (SFLogD) assay; assay type: physicochemical; settings: for logD: pH = 7.4, octanol/water shake flask, average of 2 runs unless otherwise stated
Experimental: as §1, §2

[4] = Chemical (pH) stability assay; assay type: physicochemical; settings: 24 h under acidic, neutral, and basic conditions
Experimental: Chemical stability assay: The chemical stability assay was performed in 384 well plate format (volume = […]).
Plates were prefilled with 70 µL of the appropriate buffer (pH 1.2, 7.4, 10) after which the wells were spiked with 5 µL of test compounds (1 mM). Samples were incubated for their timepoint of interest (1 h, 4 h, 24 h) at 37 °C after which the samples were diluted in MeCN (and pH 12.8 buffer for experiment at pH 1.2), mixed with an internal standard and […]
as §3, §2

SMILES | pKa [1] | pKaH ([1]; text and Figure 6) | Papp at 1.5 h [2] [×10⁻⁶ cm/s] | HHEPG clearance (human hepatocytes) [μL min^−1 million^−1] | Kinetic solubility, in words (Kinetic solubility; across acidic, neutral, and basic conditions, compared with benzamide counterpart) | solubility at 24 h (Kinetic solubility; pH 3) [µM] | solubility at 24 h (Kinetic solubility; pH 7.4) [µM] | solubility at 24 h (Kinetic solubility; pH 10) [µM] | logD [3] | Change in SFlogD of the carbonyl-to-oxetane replacement ([3]; pH 7.4, amino-oxetane versus matched benzamide) | pH stability, in words [4] | Kinetic solubility, in words (Kinetic solubility; pH 3)
COc1ccc(C2(N3CCOCC3)COC2)cc1 [4a, 4-(3-(4-Methoxyphenyl)Oxetan-3-yl)Morpholine] | 4.61 | 4.61 | 39.2 | 4 | solubility comparable to their analogous benzamides | 486 (≈ 121 µg/mL) | 556 (≈ 139 µg/mL) | 492 (≈ 123 µg/mL) | 1.17 |  |  | 
O=S(=O)(c1ccccc1)c1ccc(C2(N3CCOCC3)COC2)cc1 [10a, 4-(3-(4-(Phenylsulfonyl)Phenyl)Oxetan-3-yl)Morpholine] | 3.08 |  | 36.7 | 4 |  |  |  |  | 1.55 | +0.44 |  | 
COc1ccc(CNCc2ccccc2)cc1 [S1] | 8.81 |  |  |  |  |  |  |  |  |  |  | 
COc1ccc(C2(NCC34C[C@H]5C[C@@H](C3)C[C@@H](C4)C5)COC2)cc1 [1a, N-(((3R,5R,7R)-Adamantan-1-yl)Methyl)-3-(4-Methoxyphenyl)Oxetan-3-Amine] |  |  | 25.8 |  |  | 533 (≈ 175 µg/mL) | < 8.9 | < 0.3 | 3.6 |  | reduced stability under neutral and basic conditions | markedly improved solubility
